Four compounds from publication PMC9667936, “Functional mapping of the 14-3-3 hub protein as a guide to design 14-3-3 molecular glues” (Chemical Science, 2022) can be followed below.

One may read the Kd as the concentration at which binding is half-saturated.

Read-outs that look alike come from different tables or passages of the source. Where a SMILES comes first, the peptide text is derived from it. [ ]: non-standard residue; d: D form. ξ: configuration not given here. Phe(4-NO2) = N[C@@H](Cc1ccc([N+](=O)[O-])cc1)C(=O)O; ξAla(4-thiazolyl) = NC(Cc1cscn1)C(=O)O; pS = N[C@@H](COP(=O)(O)O)C(=O)O; β3hS = N[C@@H](CO)CC(=O)O; Nva = CCC[C@H](N)C(=O)O; ξβ3hS = NC(CO)CC(=O)O; βAla = NCCC(=O)O

The assay concerns the target T1, 14-3-3γ (Homo sapiens, UniProt P61981).
T1 construct: made in house; host or cells: E. coli NiCo21 (DE3)
T1 sequence (P61981 1-247): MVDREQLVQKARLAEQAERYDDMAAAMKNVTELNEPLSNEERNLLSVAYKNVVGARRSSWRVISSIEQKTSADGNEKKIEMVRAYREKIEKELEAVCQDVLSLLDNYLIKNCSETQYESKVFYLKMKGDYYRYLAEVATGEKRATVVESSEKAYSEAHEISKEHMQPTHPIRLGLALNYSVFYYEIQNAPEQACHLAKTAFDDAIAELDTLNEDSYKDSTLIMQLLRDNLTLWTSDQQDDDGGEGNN
Put plainly: Isothermal titration calorimetry (ITC) of 14-3-3 binding to peptide. The following applies: for ΔG / Kd / ΔH / -TΔS / ΔH (ITC) / -TΔS (ITC) / ΔG (ITC) / KD (ITC): 25 °C; for Kd: Table S6 (unit as in Table S5). How it is done: 14-3-3γ protein expression (FP/ITC experiments)
A pPROEX HTb expression vector encoding the human 14-3-3 protein gamma (14-3-3γ) with an N-terminal his6-tag was transformed by heat shock into NiCo21 (DE3) competent cells. Single colonies were cultured in 50 mL LB medium (100 µg/mL ampicillin). After overnight incubation at 37 °C, cultures were transferred to 2 L TB media (100 µg/mL ampicillin, 1 mM MgCl2) and incubated at 37 °C until an OD600 nm of 0.8-1.2 was reached. Protein expression was then induced with 0.4 mM isopropyl-β-d-thiogalactoside (IPTG), and cultures were incubated overnight at 18 °C. Cells were harvested by centrifugation (8600 rpm, 20 minutes, 4 °C) and resuspended in lysis buffer (50 mM Hepes, pH 8.0, 300 mM NaCl, 12.5 mM imidazole, 5 mM MgCl2, 2 mM βME) containing cOmplete™ EDTA-free Protease Inhibitor Cocktail tablets (1 tablet/100 ml lysate) and benzonase (1 µl/100 ml). After lysis using a C3 Emulsiflex-C3 homogenizer (Avestin), the cell lysate was cleared by centrifugation (20000 rpm, 30 minutes, 4 °C) and purified using Ni2+-affinity chromatography (Ni-NTA superflow cartridges, Qiagen).
Typically two 5 mL columns (flow 5 mL/min) were used for a 2 L culture in which the lysate was loaded on the column washed with 10 CV wash buffer (50 mM Hepes, pH 8.0, 300 mM NaCl, 25 mM imidazole, 2 mM βME) and eluted in several fractions (2-4 CV) of elution buffer (50 mM Hepes, pH 8.0, 300 mM NaCl, 250 mM imidazole, 2 mM βME). Fractions containing the 14-3-3 protein were combined and dialyzed into 25 mM HEPES pH 8.0, 100 mM NaCl, 10 mM MgCl2, 500 µM TCEP. […]
The peptides 1 and 2a-d were synthesized on 50 µmol scale on a Rink amide MBHA resin (Novabiochem, 0.52 mmol/g loading) using an automated Intavis MultiPep RSi peptide synthesizer.
Deprotection was performed twice per cycle with 20% v/v piperidine in DMF for 8 minutes. Fmoc-protected amino acids were mixed in 5 equivalents of HBTU and 9 equivalents of DIPEA in DMF, and coupled to the resin. With the exception of phosphoserine, which was coupled once for 60 minutes, all amino acids were coupled to the resin twice for 30 minutes. Capping of unreacted amino acids was performed with a mixture of acetic anhydride/pyridine/DMF (1:1:3) for 5 minutes. βAla was incorporated as a spacer between the sequence and Lys(Alloc), to which a FITC fluorophore will be coupled for fluorescence anisotropy studies.
The peptides 1 and 2e-i were synthesized manually on a 50 µmol scale using Rink amide MBHA resin (Novabiochem, 0.52 mmol/g loading) via Fmoc based solid phase peptide synthesis. […]
(lex: 485 ± 20 nm; lem: 535 ± 25 nm; mirror: Dichroic 510; flashes: 20; integration time: 50 ms; settle time:
0 ms; gain: optimal; and Z-position: calculated from well). […]
Data was obtained and averaged based on two
To determine the cooperativity parameters from the 2D-titration of 14-3-3/ChREBP/2d (as described above) we have used the general framework for straightforward model construction of multi-component thermodynamic equilibrium systems as described by Geertjens et al. (2021).10 This general platform generates a model to describe multi-component equilibrium systems when given a system description.
In our case we gave the following system description: […]
α (with 95% confidence interval) and the error-landscape of the determine parameters.
Fluorescence anisotropy (FA) – Selectivity study: Peptides representing 14-3-3 binding partners (including ChREBP) were titrated in a 2-fold dilution series (starting at 100 µM) to 20 nM of fluorescein-labeled peptide 2d in presence and absence of, respectively, 2 µM 14-3-3γ in FA buffer (10 mM HEPES pH 7.4, 150 mM NaCl, 0.1% (v/v) Tween20, 0.1% (w/v) BSA). Dilution series were made in a polystyrene (non-binding) low-volume Corning Black Round Bottom 384-well plates (Corning 4514 or 4511).
Measurements were performed directly after plate preparation, using a Tecan Infinite F500 plate reader at room temperature (lex: 485 ± 20 nm; lem: 535 ± 25 nm; mirror: Dichroic 510; flashes: 20; integration […]
Background: Isothermal titration calorimetry measures the heat released or taken up as one component is titrated into another.

The mark [1] stands for this setting: Table S5, ΔG minus ΔG of peptide 1, ITC, first unlabelled line (replicate 1).
Setting [2] is: Table S5, ΔG minus ΔG of peptide 1, ITC, second unlabelled line (replicate 2).
The mark [3] stands for this setting: Table S5, ΔG of peptide minus ΔG of peptide 1, ITC, mean of n = 2.
[4] abbreviates: ITC, average of two runs, read-out: Kd.
Setting [5] is: Table S6 (unit given in Fig. 4 legend), ITC, average of two runs.
Where [6] appears, read: Table S6, ITC, average of two runs.

As to `CCC[C@H](NC(=O)[C@H](N)CCCCN)C(=O)N[C@@H](Cc1ccc([N+](=O)[O-])cc1)C(=O)NC(Cc1cscn1)C(=O)N[C@@H](COP(=O)(O)O)C(=O)N[C@@H](Cc1ccc([N+](=O)[O-])cc1)C(=O)N[C@@H](CO)CC(=O)NCCC(=O)N[C@@H](Cc1ccc(O)cc1)C(=O)N[C@@H](CCCCN)C(N)=O` (stereo partly drawn) [5a] (H-[dK][Nva][Phe(4-NO2)][ξAla(4-thiazolyl)][pS][Phe(4-NO2)][β3hS][βAla]YK-NH2; N-terminus and C-terminus assumed), the ΔG is, setting by setting: (Table S5, ITC, mean of n = 2) -7.8 kcal/mol; (Table S5, ITC, replicate 1) -7.9 kcal/mol; (Table S5, ITC, replicate 2) -7.6 kcal/mol; under setting [6], -7,78 kcal mol^-1; (Table S6, ITC, run 1) -7,925 kcal mol^-1; (Table S6, ITC, run 2) -7,626 kcal mol^-1. The “ΔΔG to 1” value under setting [1] was determined as 2.1 kcal/mol, the “ΔΔG to 1” value under setting [2] is listed as 2.4 kcal/mol and the “ΔΔG to 1” value under setting [3] turned out to be 2.2 kcal/mol. For the same compound, the dissociation constant (Kd) under setting [4] stood at 2.06 µM; the Kd (ITC, run 1) was 1,55E-06 M; the Kd (ITC, run 2) is on record as 2,57E-06 M. For the same compound, the ΔH runs as follows: under setting [5], -5,21 kcal mol^-1; (Table S6, ITC, run 1) -6,091 kcal mol^-1; (Table S6, ITC, run 2) -4,328 kcal mol^-1. Also, the “-TΔS” value by setting is: under setting [6], -2,57 kcal mol^-1; (Table S6, ITC, run 1) -1,834 kcal mol^-1; (Table S6, ITC, run 2) -3,299 kcal mol^-1.

On to `CCC[C@H](NC(=O)[C@H](N)CCCCN)C(=O)N[C@@H](Cc1ccc([N+](=O)[O-])cc1)C(=O)NC(Cc1cscn1)C(=O)N[C@@H](COP(=O)(O)O)C(=O)N[C@@H](Cc1ccc([N+](=O)[O-])cc1)C(=O)N[C@@H](CO)CC(=O)NCCC(=O)N[C@@H](Cc1ccccc1)C(=O)N[C@@H](CCCCN)C(N)=O` (stereo partly drawn) [5b] (H-[dK][Nva][Phe(4-NO2)][ξAla(4-thiazolyl)][pS][Phe(4-NO2)][β3hS][βAla]FK-NH2; N-terminus and C-terminus assumed), for which the “increase of enthalpy (ΔH) on removal of the nitro group, relative to peptide 1” value (ITC, n = 2, Fig. 4c) is approximately 6 kcal/mol. Also, the ΔG (Table S5, ITC, mean of n = 2) was -7.9 kcal/mol; the ΔG (Table S5, ITC, replicate 1) is -7.9 kcal/mol; the ΔG (Table S5, ITC, replicate 2) is -7.8 kcal/mol; the ΔG under setting [6] was -7,88 kcal mol^-1; the ΔG (Table S6, ITC, run 1) is reported as -7,943 kcal mol^-1; the ΔG (Table S6, ITC, run 2) is on record as -7,821 kcal mol^-1. For the same compound, the “ΔΔG to 1” value under setting [1] is recorded as 2.1 kcal/mol, the “ΔΔG to 1” value under setting [2] came to 2.2 kcal/mol and the “ΔΔG to 1” value under setting [3] is 2.1 kcal/mol. In addition, the Kd by setting is: under setting [4], 1.45 µM; (ITC, run 1) 1,06E-06 M; (ITC, run 2) 1,85E-06 M. The ΔH under setting [5] is -4,72 kcal mol^-1; the ΔH (Table S6, ITC, run 1) is -4,716 kcal mol^-1; the ΔH (Table S6, ITC, run 2) is on record as -4,725 kcal mol^-1. In addition, the “-TΔS” value is recorded as -3,16 kcal mol^-1 under setting [6]; -3,227 kcal mol^-1 (Table S6, ITC, run 1); -3,096 kcal mol^-1 (Table S6, ITC, run 2).

For the compound `CCC[C@H](NC(=O)[C@H](N)CCCCN)C(=O)N[C@@H](Cc1ccc([N+](=O)[O-])cc1)C(=O)NC(Cc1cscn1)C(=O)N[C@@H](COP(=O)(O)O)C(=O)N[C@@H](Cc1ccc([N+](=O)[O-])cc1)C(=O)N[C@@H](CO)CC(=O)NCCC(=O)N[C@@H](C)C(=O)N[C@@H](CCCCN)C(N)=O` (stereo partly drawn) [5c] (H-[dK][Nva][Phe(4-NO2)][ξAla(4-thiazolyl)][pS][Phe(4-NO2)][β3hS][βAla]AK-NH2; N-terminus and C-terminus assumed), the ΔG is listed as -7.4 kcal/mol (Table S5, ITC, mean of n = 2); -7.4 kcal/mol (Table S5, ITC, replicate 1); -7.3 kcal/mol (Table S5, ITC, replicate 2); -7,38 kcal mol^-1 under setting [6]; -7,446 kcal mol^-1 (Table S6, ITC, run 1); -7,317 kcal mol^-1 (Table S6, ITC, run 2). Further, the “ΔΔG to 1” value stood at 2.6 kcal/mol under setting [1], 2.7 kcal/mol under setting [2] and 2.6 kcal/mol under setting [3]. The Kd runs as follows: under setting [4], 3.91 µM; (ITC, run 1) 3,48E-06 M; (ITC, run 2) 4,33E-06 M. Also, the ΔH is, setting by setting: under setting [5], -2,89 kcal mol^-1; (Table S6, ITC, run 1) -2,242 kcal mol^-1; (Table S6, ITC, run 2) -3,539 kcal mol^-1. Further, the “-TΔS” value reads like this: under setting [6], -4,49 kcal mol^-1; (Table S6, ITC, run 1) -5,204 kcal mol^-1; (Table S6, ITC, run 2) -3,779 kcal mol^-1.

In the case of `CCC[C@H](NC(=O)[C@H](N)CCCCN)C(=O)N[C@@H](Cc1ccc([N+](=O)[O-])cc1)C(=O)NC(Cc1cscn1)C(=O)N[C@@H](COP(=O)(O)O)C(=O)N[C@@H](Cc1ccc([N+](=O)[O-])cc1)C(=O)NC(CO)CC(=O)NCCC(=O)N[C@@H](Cc1ccc([N+](=O)[O-])cc1)C(=O)N[C@@H](CCCCN)C(N)=O` (stereo partly drawn) [compound 1] (H-[dK][Nva][Phe(4-NO2)][ξAla(4-thiazolyl)][pS][Phe(4-NO2)][ξβ3hS][βAla][Phe(4-NO2)]K-NH2), where the note is “ITC”, the “free binding energy ΔG (ITC)” value was -10.0 kcal/mol. Also, the “ΔH (ITC)” value (Table S1 (unit given in Fig. 4 legend), ITC, mean of n = 2) is -10.7 kcal/mol; the “ΔH (ITC)” value (Table S1, ITC, replicate 1) was -11.0 kcal/mol; the “ΔH (ITC)” value (Table S1, ITC, replicate 2) was -10.5 kcal/mol. The “-TΔS (ITC)” value is 0.7 kcal/mol (Table S1, ITC, mean of n = 2); 0.9 kcal/mol (Table S1, ITC, replicate 1); 0.4 kcal/mol (Table S1, ITC, replicate 2). For the same compound, the “ΔG (ITC)” value was -10.0 kcal/mol (Table S1, ITC, mean of n = 2); -10.0 kcal/mol (Table S1, ITC, replicate 1); -10.0 kcal/mol (Table S1, ITC, replicate 2). The “KD (ITC)” value is, setting by setting: (Table S1, ITC, replicate 1) 0.0447 µM; (Table S1, ITC, replicate 2) 0.0453 µM. The ΔG runs as follows: (Table S5, ITC, mean of n = 2) -10.0 kcal/mol; (Table S5, ITC, replicate 1) -10.0 kcal/mol; (Table S5, ITC, replicate 2) -10.0 kcal/mol; under setting [6], -10,03 kcal mol^-1; (Table S6, ITC, run 1) -10,03 kcal mol^-1; (Table S6, ITC, run 2) -10,02 kcal mol^-1. For the same compound, the ΔH is, setting by setting: under setting [5], -10,71 kcal mol^-1; (Table S6, ITC, run 1) -10,96 kcal mol^-1; (Table S6, ITC, run 2) -10,45 kcal mol^-1. Further, the “-TΔS” value was 0,68 kcal mol^-1 under setting [6]; 0,933 kcal mol^-1 (Table S6, ITC, run 1); 0,426 kcal mol^-1 (Table S6, ITC, run 2).
